Consider nine compounds from US20260306527A1, “PRMT INHIBITOR COMPOUNDS AND THE USES THEREOF” (Purdue Research Foundation, priority 2023, published 2026).

Assay [1] addresses T1, PRMT8 (Homo sapiens, UniProt Q9NR22). Description: selectivity of YD1113/YD1290 on PRMT panel, PRMT8. It counts as biochemical. The protocol:
(§1) The selectivity of compounds YD1113 and YD1290 on PRMTs were performed by Reaction Biology Corp.
(§2) Next, the selectivity of YD1113 was investigated on a panel of PRMTs at 10 μM.
(§3) After validating the benzyl urea moiety as an unconventional homocysteine mimic of SAH for PRMTs, it was hypothesized that incorporating the benzyl urea moiety into the original pan PRMT inhibitor II757 would build a potent bisubstrate inhibitor. […] To enable a stable tri-substitution, the sulfur atom with a nitrogen atom was replaced. YD1290 was synthesized following the reported methods 9, 15 and tested in a radioactivity assay for PRMTs (FIG. 6b).

Assay [2] has as its system PRMT4. Description: selectivity of YD1113/YD1290 on PRMT panel, PRMT4. It counts as biochemical. The protocol: as §1, §2, §3
For assay [3], the system named is PRMT3. Description: selectivity of YD1113/YD1290 on PRMT panel, PRMT3. Type of assay: biochemical. The protocol:
as §1, §2, §3

Assay [4] deals with PRMT7. Description: selectivity of YD1113 on PRMT panel, PRMT7. It counts as biochemical. As for the experimental part: as §1, §2
The target of the next assay is PRMT5 (Homo sapiens, UniProt O14744). Description: selectivity of YD1113 on PRMT panel, PRMT5. It counts as biochemical. As to conditions: read-out: IC50 (nM) | PRMT5. As for the experimental part: as §1, §2
The target of assay [5] is T2, PRMT1 (Homo sapiens, UniProt Q99873).
T2 construct: made in house
Description: SAHH-coupled fluorescence assay, inhibition of PRMT1. Type of assay: biochemical. Summed up:
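PRMT1 (0.1 μM) was run with 10 μM AdoMet, 5 μM SAHH and 10 μM ThioGlo4 in 2.5 mM HEPES pH 7.0, 25 mM NaCl, 25 μM EDTA, 50 μM TCEP and 0.01% Triton X-100. Fluorescence (ex 400/em 465 nm) was monitored for 15 min. Assays were done in duplicate.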

In assay [6] the target is T2, PRMT1. Description: selectivity of YD1113/YD1290 on PRMT panel, PRMT1. It counts as biochemical. The protocol:
as §1, §2, §3

For assay [7], the target named is T3, PRMT6 (Homo sapiens, UniProt Q96LA8). Description: selectivity of YD1113/YD1290 on PRMT panel, PRMT6. Type of assay: biochemical. As for the experimental part: as §1, §2, §3
In assay [8] the target is T3, PRMT6. Description: radioactive assay (Reaction Biology Corp.), inhibition of PRMT6. It counts as biochemical. As for the experimental part:
(§4) Next, the inhibition activity of the library was investigated for five PRMT members from type I PRMTs.
(§5) The PRMT 4, 6 and 8 methylation assays were performed by Reaction Biology corp.

The subject of a further assay is PRMTs. As to conditions: cited from earlier work.
Assay [9] has as its target T4, PRMT3 (Homo sapiens, UniProt O60678). Description: SAHH-coupled fluorescence assay, inhibition of PRMT3. It counts as biochemical. Set-up: PRMT3 (residues 211-531) was cloned into the pET28a-MHL expression vector; tag of the pET28a-MHL vector (not described); made in house; host or cells: Escherichia coli BL21(DE3). Summed up:
(§6)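 Coupled SAHH/ThioGlo4 fluorescence read-out (ex 380 nm, em 505 nm) of PRMT3 (0.25 μM) methylation with 30 μM AdoMet and 5 μM SAHH. Buffer was 20 mM Tris pH 7.5 with 0.01% Triton X-100. Run in duplicate.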

The target in assay [10] is T5, PRMT4 (Homo sapiens, UniProt Q86X55).
T5 sequence (Q86X55 1-608): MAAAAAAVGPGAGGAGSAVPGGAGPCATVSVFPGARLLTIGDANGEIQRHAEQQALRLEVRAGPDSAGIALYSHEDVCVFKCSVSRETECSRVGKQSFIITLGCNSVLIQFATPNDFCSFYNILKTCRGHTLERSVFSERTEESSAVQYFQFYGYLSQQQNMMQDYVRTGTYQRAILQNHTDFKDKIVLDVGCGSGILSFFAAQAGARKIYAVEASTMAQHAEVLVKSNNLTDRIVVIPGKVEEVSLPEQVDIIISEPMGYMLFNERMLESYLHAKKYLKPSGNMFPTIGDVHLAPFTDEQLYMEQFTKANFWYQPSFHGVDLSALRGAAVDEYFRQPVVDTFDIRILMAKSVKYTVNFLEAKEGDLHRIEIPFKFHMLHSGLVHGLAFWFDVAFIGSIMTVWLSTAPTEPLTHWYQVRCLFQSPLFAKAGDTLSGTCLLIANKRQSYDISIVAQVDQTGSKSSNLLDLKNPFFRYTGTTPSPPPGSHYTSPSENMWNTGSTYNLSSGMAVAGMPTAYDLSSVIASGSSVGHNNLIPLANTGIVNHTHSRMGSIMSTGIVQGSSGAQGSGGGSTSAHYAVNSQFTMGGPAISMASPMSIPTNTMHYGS
Description: radioactive assay (Reaction Biology Corp.), inhibition of PRMT4. Type of assay: biochemical. As for the experimental part:
as §4, §5

Assay [11] concerns the target T1, PRMT8. Description: radioactive assay (Reaction Biology Corp.), inhibition of PRMT8. It counts as biochemical. As for the experimental part: as §4, §5
Assay [12] relates to PRMT3. Description: SAHH-coupled fluorescence assay, inhibition of PRMT3. It counts as biochemical. As to conditions: read-out: IC50[μM] | PRMT3. The procedure, abridged: as §6
Another assay has as its system PRMT4/7. As to conditions: previously reported; cited from earlier work.
Another assay concerns PRMT 5/7. As to conditions: cited from earlier work.
In another assay the test system is DOT1L. To be noted: cited from earlier work.
Assay [13] has as its target T4, PRMT3. Description: thermal shift assay PRMT3. Type of assay: binding. Set-up: PRMT3 (residues 211-531) was cloned into the pET28a-MHL expression vector; tag of the pET28a-MHL vector (not described); made in house; host or cells: Escherichia coli BL21(DE3). As to conditions: 100 μM compound, 20 μM protein. The protocol: (§7) The fluorescence-based thermal shift assay was performed using a StepOne plus qPCR instrument (Thermal Fisher). For PRMT1, 10 μM of protein was mixed with 2× sypro orange and DMSO, or 100 μM SAM, or 100 μM YD1113, or 100 μM YD1290 in a buffer consisting of 2.5 mM HEPES (pH=7.0), 25 mM NaCl, 25 μM EDTA, 50 μM TCEP, 0.01% Triton X-100. For PRMT3, 20 μM of protein was mixed with 2× sypro orange and DMSO, or 100 μM SAM, or 100 μM YD1113, or 100 μM YD1290 in a buffer consisting of 20 mM Tris (pH=7.5), 0.01% Triton X-100. For PRMT4, 20 μM of protein was mixed with 2× sypro orange and DMSO, or 100 μM SAM, or 100 μM YD1113, or 100 μM YD1290 in a buffer consisting of 20 mM bicine (pH=8.5), 0.01% Triton X-100. All samples were heated from 25° C. to 75° C. at an increased rate of 0.5° C. per minute. Protein denaturation was monitored by the increased fluorescence signal of Sypro Orange, which captures exposed hydrophobic residues during thermal unfolding. The recorded curves were analyzed by the software StepOne plus and plotted in GraphPad Prism 8 software.
(§8) Next, the thermal shift assay (TSA) was conducted as an orthogonal method to examine the effects of YD1290 on the thermal stability of PRMT1, 3, and 4 (Figure S1).

For assay [14], the target named is T2, PRMT1. Description: thermal shift assay PRMT1. It counts as binding. As to conditions: 100 μM compound, 10 μM protein. The protocol:
as §7, §8

The target in assay [15] is T6, PRMT4 (Homo sapiens, UniProt Q86X55).
T6 construct: PRMT4 (residues 140-480) was cloned into the pFBOH-MHL vector; tag of the pFBOH-MHL vector (poly-His implied by Ni-NTA purification; not described); made in house; host or cells: Sf9 insect cells
Description: thermal shift assay PRMT4. It counts as binding. As to conditions: 100 μM compound, 20 μM protein. As for the experimental part: as §7, §8

Assay [16] has as its target PRMT7 (Homo sapiens, UniProt Q9NVM4). As to conditions: cited from earlier work.
The next assay concerns PRMT4/5. Description: inhibition of PRMT4/5 (figure legend). It counts as biochemical.

“Also recorded” adds a separate entry of the source.

T3 sequence (Q96LA8 whole entry, species assumed): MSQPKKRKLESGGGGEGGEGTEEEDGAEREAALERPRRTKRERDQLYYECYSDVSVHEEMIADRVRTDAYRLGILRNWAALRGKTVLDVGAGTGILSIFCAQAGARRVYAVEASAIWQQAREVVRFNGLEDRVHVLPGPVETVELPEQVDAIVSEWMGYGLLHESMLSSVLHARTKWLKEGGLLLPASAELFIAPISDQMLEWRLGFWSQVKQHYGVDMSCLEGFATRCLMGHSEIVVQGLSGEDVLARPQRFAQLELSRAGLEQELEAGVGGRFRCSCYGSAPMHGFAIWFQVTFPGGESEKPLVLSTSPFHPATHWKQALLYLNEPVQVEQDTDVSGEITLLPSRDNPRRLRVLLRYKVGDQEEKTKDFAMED
Sequence of PRMT7 (Homo sapiens, UniProt Q9NVM4) (Q9NVM4 whole entry, species assumed): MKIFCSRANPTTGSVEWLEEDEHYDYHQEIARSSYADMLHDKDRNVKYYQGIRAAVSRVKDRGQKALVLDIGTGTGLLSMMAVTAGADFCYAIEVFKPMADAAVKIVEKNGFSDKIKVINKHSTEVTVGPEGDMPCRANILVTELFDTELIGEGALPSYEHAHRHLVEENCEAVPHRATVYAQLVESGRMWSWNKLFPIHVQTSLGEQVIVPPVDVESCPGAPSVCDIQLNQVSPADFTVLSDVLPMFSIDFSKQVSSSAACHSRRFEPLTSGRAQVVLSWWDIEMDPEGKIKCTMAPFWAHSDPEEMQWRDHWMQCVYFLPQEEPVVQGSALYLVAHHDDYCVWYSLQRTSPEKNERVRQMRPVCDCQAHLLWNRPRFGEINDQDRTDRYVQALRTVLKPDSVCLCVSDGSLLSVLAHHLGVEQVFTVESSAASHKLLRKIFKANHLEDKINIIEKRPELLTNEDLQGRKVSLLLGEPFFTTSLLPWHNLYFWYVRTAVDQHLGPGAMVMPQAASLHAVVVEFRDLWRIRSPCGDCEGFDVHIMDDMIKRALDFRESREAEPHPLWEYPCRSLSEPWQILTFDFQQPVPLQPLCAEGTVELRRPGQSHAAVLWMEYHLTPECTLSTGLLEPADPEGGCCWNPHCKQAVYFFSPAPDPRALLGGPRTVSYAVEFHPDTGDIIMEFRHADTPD
T2 sequence (Q99873 whole entry, species assumed): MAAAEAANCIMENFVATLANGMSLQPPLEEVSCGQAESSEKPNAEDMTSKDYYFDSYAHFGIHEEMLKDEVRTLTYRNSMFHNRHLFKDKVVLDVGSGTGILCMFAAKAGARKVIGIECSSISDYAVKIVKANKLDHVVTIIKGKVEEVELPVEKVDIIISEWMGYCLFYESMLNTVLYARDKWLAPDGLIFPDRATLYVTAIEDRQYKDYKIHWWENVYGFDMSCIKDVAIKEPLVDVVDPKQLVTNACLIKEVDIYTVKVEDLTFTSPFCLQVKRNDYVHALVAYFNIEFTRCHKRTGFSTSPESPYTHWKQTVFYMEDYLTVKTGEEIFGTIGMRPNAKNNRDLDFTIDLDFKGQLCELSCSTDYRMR
T1 sequence (Q9NR22 whole entry, species assumed): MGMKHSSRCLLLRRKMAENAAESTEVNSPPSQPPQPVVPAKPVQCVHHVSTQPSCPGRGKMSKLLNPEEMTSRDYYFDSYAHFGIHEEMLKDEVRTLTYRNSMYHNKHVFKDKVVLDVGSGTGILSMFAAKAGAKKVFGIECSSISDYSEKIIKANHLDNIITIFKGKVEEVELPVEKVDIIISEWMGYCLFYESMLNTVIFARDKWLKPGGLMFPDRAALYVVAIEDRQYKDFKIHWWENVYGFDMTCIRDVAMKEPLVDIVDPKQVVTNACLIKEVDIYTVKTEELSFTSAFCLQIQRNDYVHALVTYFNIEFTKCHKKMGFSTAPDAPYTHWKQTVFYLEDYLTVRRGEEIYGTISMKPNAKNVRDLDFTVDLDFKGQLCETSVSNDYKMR
T4 sequence (O60678 211-531): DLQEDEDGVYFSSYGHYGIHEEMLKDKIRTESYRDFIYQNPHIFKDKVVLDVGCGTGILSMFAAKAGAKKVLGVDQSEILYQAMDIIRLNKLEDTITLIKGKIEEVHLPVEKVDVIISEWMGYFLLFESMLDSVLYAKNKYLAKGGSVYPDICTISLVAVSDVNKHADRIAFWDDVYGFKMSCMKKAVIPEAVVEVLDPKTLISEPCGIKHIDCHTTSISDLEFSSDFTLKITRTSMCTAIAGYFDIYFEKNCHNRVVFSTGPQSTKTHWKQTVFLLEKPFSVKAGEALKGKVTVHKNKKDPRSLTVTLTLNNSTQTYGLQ
Sequence of PRMT5 (O14744 whole entry, species assumed): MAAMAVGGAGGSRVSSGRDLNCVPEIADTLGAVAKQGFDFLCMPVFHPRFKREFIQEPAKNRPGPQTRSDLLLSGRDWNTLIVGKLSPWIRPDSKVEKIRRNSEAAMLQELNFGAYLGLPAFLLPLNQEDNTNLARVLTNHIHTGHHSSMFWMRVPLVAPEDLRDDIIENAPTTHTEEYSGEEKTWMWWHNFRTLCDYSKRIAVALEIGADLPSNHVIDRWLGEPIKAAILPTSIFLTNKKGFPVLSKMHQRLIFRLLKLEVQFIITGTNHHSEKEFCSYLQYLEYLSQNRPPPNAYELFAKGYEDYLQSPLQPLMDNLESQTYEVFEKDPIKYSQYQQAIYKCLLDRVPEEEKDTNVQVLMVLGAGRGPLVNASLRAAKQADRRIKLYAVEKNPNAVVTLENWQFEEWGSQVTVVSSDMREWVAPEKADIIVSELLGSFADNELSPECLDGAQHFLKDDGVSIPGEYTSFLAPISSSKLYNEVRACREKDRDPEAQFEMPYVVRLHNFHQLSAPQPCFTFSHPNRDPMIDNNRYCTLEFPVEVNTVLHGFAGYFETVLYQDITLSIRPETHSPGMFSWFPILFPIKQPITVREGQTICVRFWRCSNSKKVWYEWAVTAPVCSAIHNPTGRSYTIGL
Sequence of PRMT5 (Q9BQA1 whole entry partner, species assumed): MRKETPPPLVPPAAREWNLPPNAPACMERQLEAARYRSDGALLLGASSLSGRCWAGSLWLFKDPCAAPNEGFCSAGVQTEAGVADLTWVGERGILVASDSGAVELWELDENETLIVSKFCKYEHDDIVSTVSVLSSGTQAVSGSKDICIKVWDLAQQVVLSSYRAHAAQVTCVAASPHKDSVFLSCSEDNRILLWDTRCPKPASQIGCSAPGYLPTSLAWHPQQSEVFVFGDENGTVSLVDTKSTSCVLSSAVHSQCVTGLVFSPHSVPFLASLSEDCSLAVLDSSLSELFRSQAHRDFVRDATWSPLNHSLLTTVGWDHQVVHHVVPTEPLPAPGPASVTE

For the compound `N=C(NCCCSC[C@H]1O[C@@H](n2cnc3c(NCc4cn(Cc5ccccc5)nn4)ncnc32)C(O)[C@H]1O)Nc1cccc(Br)c1` (stereo in doubt) [YD1-254], the concentration for half-maximal inhibition (IC50) (usually the concentration needed to halve the response being measured) was 40 nM against PRMT8 [1]; 1680 nM in the assay with PRMT4 [2]; 3620 nM in the assay on PRMT3 [3]; > 30000 nM with PRMT7 [4]; 1790 nM on PRMT5; 14 nM against PRMT1 [6]. Also, half-maximal inhibition on PRMT6 [7] (IC50) required 25 nM. Moreover, the “PRMT1 inhibition” value at PRMT1 [5] was “PRMT1 inhibitors”.
Turning to `N=C(NCCCSC[C@H]1O[C@@H](n2cnc3c(N)ncnc32)[C@H](O)[C@@H]1O)Nc1cccc(Br)c1` [Compound 5f], the inhibition (commonly the drop in the measured response relative to a control, in per cent) at 10 µM at PRMT6 [8] stood at 100%; against PRMT3 [9], 68%; on PRMT1 [5], 94%; at PRMT4 [10], 100%; on PRMT8 [11], 100%. In addition, the “inhibition of all PRMTs” value with PRMTs is “broad and potent inhibition to all PRMTs”. Also, the IC50 with PRMT4 [2] was 5.05 nM; with PRMT3 [3], 321 nM; with PRMT7 [4], 555 nM; on PRMT1 [5] (read-out: IC50[μM] | PRMT1) it was 0.08 ± 0.016 µM; in the assay on PRMT3 [12], 2.2 ± 0.29 µM.
Consider `Nc1ncnc2c1ncn2[C@@H]1O[C@H](CSCCCNCc2cccc(-c3ccc(Cl)cc3)c2)[C@@H](O)[C@H]1O` [Compound 10m], for which the inhibition at 10 µM on PRMT6 [8] was 46%; at PRMT3 [9] it was 22%; against PRMT1 [5], 65%; on PRMT4 [10], 99%; at PRMT8 [11], 73%. Besides, the “PRMT4/7 inhibition” value in the assay with PRMT4/7 is “potent PRMT4/7 inhibitor”. The “PRMT4 inhibition” value on PRMT4 [10] is “more potent PRMT4 inhibition activity than SGC8158”.
As to `CCNC(=O)NCCSC[C@H]1O[C@@H](n2cnc3c(N)ncnc32)[C@H](O)[C@@H]1O` [DS-437], in the assay with PRMT 5/7, the “PRMT 5/7 inhibition” value is on record as “dual inhibition to PRMT 5/7”.
Regarding `CC(C)N(CCCNC(=O)Nc1ccc(C(C)(C)C)cc1)C[C@H]1O[C@@H](n2ccc3c(N)ncnc32)[C@H](O)[C@@H]1O` [EPZ004777], the “selectivity for DOT1L” value in the assay on DOT1L is recorded as “high selectivity”.
Take `C[S+](CC[C@H](N)C(=O)O)C[C@H]1O[C@@H](n2cnc3c(N)ncnc32)[C@H](O)[C@@H]1O` (stereo partly drawn) [SAM, S-adenosyl-L-methionine, reference compound]: at PRMT3 [13], the “ΔTm PRMT3” value was “+1.1 °C”. Further, the “ΔTm PRMT1” value at PRMT1 [14] was “+1.6 °C”. Also, the “ΔTm PRMT4” value at PRMT4 [15] is “+1.9 °C”.
Regarding `Nc1ncnc2c1ncn2C1OC(CSCCCCNCc2cccc(-c3ccc(Cl)cc3)c2)C(O)C1O` (centres unmarked) [SGC8158], the “PRMT7 inhibition” value at PRMT7 [16] is “selectively inhibits PRMT7; also recorded: selective PRMT7 inhibition; also recorded: selective PRMT7 inhibitor”.
For `N=C(NCCCSC[C@H]1O[C@@H](n2cnc3c(NCC#Cc4ccccc4)ncnc32)[C@H](O)[C@@H]1O)Nc1cccc(Br)c1` [YD1-248], the half-inhibitory concentration (IC50) worked out at 24 nM against PRMT8 [1]; 2760 nM in the assay with PRMT4 [2]; 2370 nM in the assay on PRMT3 [3]; 5570 nM in the assay on PRMT7 [4]; 1380 nM at PRMT5; 3.35 nM against PRMT1 [6]. Also, 25 nM corresponded to half-maximal inhibition at PRMT6 [7] (IC50). The “PRMT1 inhibition” value at PRMT1 [5] is given as “PRMT1 inhibitors”.
In the case of `CC(CN(CCCN)C[C@H]1O[C@@H](n2cnc3c(N)ncnc32)[C@H](O)[C@@H]1O)NC(=O)NCc1ccccc1` (some centres unmarked) [YD1288], the “PRMT4/5 inhibition” value in the assay on PRMT4/5 is “dual selective and potent PRMT4/5 inhibitor”.
